Test results as given in PubChem BioAssay (NCI).
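The compound was tested at five concentrations on cells cultured in 96-well plates, with a 48-hour exposure period. GI50 marks 50% less growth. TGI marks complete inhibition of growth.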

These molecules were tested on HCT-116 colon (assay: inhibition of tumour cell growth, NCI panel, 48 h).
`CC(C)(C)N=C(N)NC#N` gave a TGI greater than 100 µM.
`CN1CCN(Cc2cc3c(nn2)-c2ccccc2C3=O)CC1` gave a TGI greater than 100 µM.
`O=C(NN1C(=O)CS(=O)(=O)C1c1ccc(C(F)(F)F)cc1)c1ccncc1` (stereo unspecified) showed a TGI greater than 100 µM.
`CC1(C)CCc2c(ccc(C(=O)/C=C/c3ccc(O)cc3)c2O)O1` was tested, and the TGI was 20 µM.
In the case of `COc1ccc(CC(N)=O)cc1OC`, the TGI is reported as greater than 1250 µM.
In the case of `CCOC(=O)CNC(=O)NC12CC3CC(CC(C3)C1)C2`, the TGI is reported as greater than 550 µM.
Work on `Cc1nc2ccccc2c(-n2cccn2)c1CCn1cccn1` yielded a TGI greater than 100 µM.
Work on `O=C(NCCCl)O/N=C/c1cccnc1` yielded a TGI greater than 100 µM.
`C/C1=C\[C@H](C)C[C@H](C)OC(=O)[C@H](C)NC(=O)[C@@H](Cc2ccc(O)c(Br)c2)N(C)C(=O)[C@H](C)NC(=O)[C@@H](C)C1` was tested, and the TGI was greater than 12.2 µM.
Molecule `CC(C)C1=CC23CCC4C(C)(C(=O)O)CCCC4(C)C2CC1C1C(=O)N(CCCCCCN2C(=O)C4C5CC6C7(C)CCCC(C)(C(=O)O)C7CCC6(C=C5C(C)C)C4C2=O)C(=O)C13` (stereo unspecified) has a TGI of 20.9 µM.
With `COc1cc2c(cc1OCCCN1C(=O)c3cccc4cccc(c34)C1=O)N=C[C@@H]1CCCN1C2=O` the TGI was greater than 100 µM.
For `COC(=O)c1ccccc1CC1Cc2cccc(C)c2C1=O` (stereo unspecified), the TGI was greater than 100 µM.
`COc1ccc(/C=N/NC(=O)c2ccc(O)c(CN(C)C)c2)cc1` showed a TGI greater than 100 µM.

The molecules below were run on SNB-75 CNS (assay: inhibition of tumour cell growth, NCI panel, 48 h).
`C=CC1(C)CC(=O)C2(O)C(C)(O1)C(OC(C)=O)C(O)C1C(C)(C)CCC(O)C12C` (stereo unspecified) gave a GI50 of 4.13 µM and a TGI greater than 150 µM.
With `CN1Cc2c(nc(-c3ccccc3)c[n+]2[O-])N(C)C1` the TGI was greater than 100 µM.
`C=C(CN(C)C)C(=O)c1ccc(C(=O)C(=C)CN(C)C)cc1` gave a TGI greater than 100 µM.
Work on `COc1cc(Nc2ccc3c(c2)CCC3)nc(OC)n1` yielded a TGI of 53.5 µM.
`Cc1cc(C)nc(NC(=S)Nc2ccc([N+](=O)[O-])cc2)c1` was tested, and the TGI was greater than 100 µM.
`Cc1c2c(c(C)n1-c1ccccc1)C(=O)N(CCN1CCN(c3cccc(C(F)(F)F)c3)CC1)C2=O` was tested, and the TGI was greater than 100 µM.
`O[C@H]1[C@H](O)[C@@H](O)CN2CC[C@H](O)[C@H]12` showed a TGI greater than 100 µM.
For `Clc1sc(Cl)c2c1[C@@H](Cl)C[C@@H]2Br`, the TGI was greater than 100 µM.
Molecule `O=C(OCC(Cl)(Cl)Cl)N1CC[C@H](C2CCCCC2)C1` has a TGI of 35.9 µM.
`Cc1ccnc(NC(=S)Nc2ccc([N+](=O)[O-])cc2)c1` showed a TGI greater than 100 µM.
Work on `O=C(CN1C(=O)CC(c2ccccc2)(c2ccccc2)C1=O)N1CCN(CCO)CC1` yielded a TGI greater than 100 µM.
In the case of `CC(C)(CO)CNc1nc(N)nc(Cl)c1/C=N/O`, the TGI is reported as greater than 100 µM.
`COc1ccc2oc(=N)c(C(=O)Nc3ccccc3)cc2c1` showed a TGI of 28 µM.
With `O=C1c2cccc3cccc(c23)C(=O)N1CCCNCCCCNCCCNCCCN1C(=O)c2cccc3cccc(c23)C1=O` the TGI was 1.46 µM.
In the case of `O=c1onc2n1-c1cc(Cl)ccc1C(=S)N1CSCC21` (stereo unspecified), the TGI is reported as greater than 100 µM.
Work on `COc1cc(C2c3cc4c(cc3[C@@H](Nc3ccccc3)C3COC(=O)[C@H]23)OCO4)cc(OC)c1O` (stereo partly specified) yielded a TGI of 7.97 µM.
Molecule `OC(C#CCN1CCCC1)(c1ccccc1)c1ccccc1Cl` (stereo unspecified) has a TGI greater than 100 µM.
Work on `CCc1n[nH]c(=O)n1-c1ccc2ccccc2c1` yielded a TGI greater than 100 µM.
`CSc1nc2c(c(N(C)C)n1)C(O)n1c(nc3ccccc31)S2` (stereo unspecified) gave a TGI of 74.2 µM.
`O=C1NC(O)CCN1C1OC(CO)C(O)C1O` (stereo unspecified) gave a TGI greater than 250 µM.
Work on `O=C1CSC2(CC(/C=C/c3cccs3)=NN2c2cccc(S(=O)(=O)O)c2)N1c1nc2ccccc2s1` (stereo unspecified) yielded a TGI greater than 100 µM.
For `COc1ccc(-c2nc3ccccc3c(=S)n2OC(C)=O)cc1`, the TGI was greater than 25 µM.
With `CCCCOCCOC1=C(Cl)C(=O)c2c(O)ccc(O)c2C1=O` the TGI was 2.01 µM.
`CC1=C(C#N)c2nc3ccccc3n2C(=O)C1(C)CCO` (stereo unspecified) was tested, and the TGI was greater than 100 µM.
In the case of `CCN(CC)c1ccc(/C=C/c2ccnc3ccccc23)cc1`, the TGI is reported as greater than 100 µM.
Molecule `CC(C)(C)N=C(N)NC#N` has a TGI greater than 100 µM.
In the case of `CN1CCN(Cc2cc3c(nn2)-c2ccccc2C3=O)CC1`, the TGI is reported as greater than 100 µM.
Work on `O=C(NN1C(=O)CS(=O)(=O)C1c1ccc(C(F)(F)F)cc1)c1ccncc1` (stereo unspecified) yielded a TGI greater than 100 µM.
`COc1ccc(CC(N)=O)cc1OC` was tested, and the TGI was greater than 1250 µM.
`CCOC(=O)CNC(=O)NC12CC3CC(CC(C3)C1)C2` showed a TGI of 408 µM.
With `COc1cc2c(cc1OCCCCCN1CCN(c3ncnc4ccccc34)CC1)N=CC1CCCN1C2=O` (stereo unspecified) the GI50 was 0.0168 µM and the TGI was 0.0823 µM.
With `O=C(NCCCl)O/N=C/c1cccnc1` the GI50 was greater than 100 µM and the TGI was greater than 100 µM.
`C/C1=C\[C@H](C)C[C@H](C)OC(=O)[C@H](C)NC(=O)[C@@H](Cc2ccc(O)c(Br)c2)N(C)C(=O)[C@H](C)NC(=O)[C@@H](C)C1` was tested, and the TGI was 0.0904 µM.
Molecule `COC(=O)c1ccccc1CC1Cc2cccc(C)c2C1=O` (stereo unspecified) has a TGI of 86.8 µM.

Each molecule was assayed on HL-60(TB) leukemia (assay: inhibition of tumour cell growth, NCI panel, 48 h).
In the case of `C=CC1(C)CC(=O)C2(O)C(C)(O1)C(OC(C)=O)C(O)C1C(C)(C)CCC(O)C12C` (stereo unspecified), the TGI is reported as greater than 137 µM.
